Test systems include ACHN renal; SW-620 colon; SNB-75 CNS; K-562 leukemia; HT29 colon; LOX IMVI melanoma; U251 CNS; 786-0 renal; M14 melanoma; SK-MEL-28 melanoma.
Test in all cases: inhibition of tumour cell growth, NCI panel, 48 h

Consider eight compounds from PubChem BioAssay (NCI).

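Cultured in 96-well plates, cells were exposed to test compound for 48 hours across five concentrations. GI50 = concentration required for 50% inhibition of growth. At the TGI there is no net growth.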

As for `COc1ccc(Cc2nc3cc(OC)c(OC)cc3c(=O)[nH]2)cc1`, the GI50 was 9.14 µM in the experiment with ACHN renal; 3.32 µM in the experiment with SW-620 colon; 9.79 µM in the experiment with SNB-75 CNS; 34.3 µM in the experiment with K-562 leukemia; 4.73 µM in the experiment with HT29 colon; 10.9 µM in the experiment with LOX IMVI melanoma. In addition, the GI50 in the experiment on U251 CNS is 10.5 µM; in the experiment with 786-0 renal, 7.31 µM; with M14 melanoma, 4.13 µM; in the experiment with SK-MEL-28 melanoma, 11.5 µM. Also, the TGI in the experiment on ACHN renal was above 100 µM; in the experiment with SW-620 colon, above 63.5 µM; in the experiment on SNB-75 CNS it was 40.1 µM; with K-562 leukemia, above 100 µM; in the experiment with HT29 colon, above 100 µM; in the experiment on LOX IMVI melanoma, above 100 µM. Further, the TGI with U251 CNS was above 100 µM; in the experiment on 786-0 renal, above 100 µM; in the experiment on M14 melanoma, above 41.2 µM; in the experiment with SK-MEL-28 melanoma, 65.1 µM.

As for `C=CCN=C(N/N=C/c1ccc([N+](=O)[O-])o1)NS(=O)(=O)c1cc(C(=O)Nc2ccccc2)c(Cl)cc1SCC(N)=O`, the GI50 was above 100 µM in the experiment on ACHN renal; 5.99 µM in the experiment with SW-620 colon; above 100 µM with SNB-75 CNS; 9.16 µM in the experiment on K-562 leukemia; 40.8 µM in the experiment on HT29 colon; 17 µM in the experiment with LOX IMVI melanoma. In addition, the GI50 in the experiment on U251 CNS was 22.9 µM; in the experiment on 786-0 renal it was 63.7 µM; with M14 melanoma, 69.8 µM; with SK-MEL-28 melanoma, 37.6 µM. The TGI was above 100 µM in the experiment on ACHN renal; 37.4 µM with SW-620 colon; above 100 µM with SNB-75 CNS; 49.8 µM in the experiment with K-562 leukemia; above 100 µM with HT29 colon; 42.1 µM with LOX IMVI melanoma. In addition, the TGI in the experiment with U251 CNS was 95.8 µM; in the experiment with 786-0 renal, above 100 µM; in the experiment with M14 melanoma, above 100 µM; in the experiment on SK-MEL-28 melanoma, above 100 µM.

Turning to `COc1ccc(/C=C/C(C)=N/OCC(=O)Nc2ccc(Cl)cc2)cc1`, the GI50 in the experiment with ACHN renal is 1.94 µM; in the experiment on SW-620 colon it was 3.13 µM; in the experiment on SNB-75 CNS, 3.21 µM; in the experiment on K-562 leukemia, 2.42 µM; in the experiment on HT29 colon, 3.87 µM; in the experiment on LOX IMVI melanoma, 2.63 µM. Besides, the GI50 with U251 CNS is 2.94 µM; with 786-0 renal, 4.2 µM; in the experiment with M14 melanoma, 3.01 µM; with SK-MEL-28 melanoma it was 3.17 µM. Also, the TGI in the experiment with ACHN renal is above 38.9 µM; in the experiment with SW-620 colon it was 20.1 µM; with SNB-75 CNS it was 32.6 µM; with K-562 leukemia, 17.2 µM; in the experiment with HT29 colon, 18.2 µM; with LOX IMVI melanoma, 15.5 µM. Besides, the TGI in the experiment with U251 CNS turned out to be 13.7 µM; in the experiment on 786-0 renal it was 26.6 µM; in the experiment on M14 melanoma, 14.1 µM; in the experiment on SK-MEL-28 melanoma, 31.6 µM.

On to `O=C(/C(=C/c1ccc(O)cc1)c1ccccc1)c1ccccc1`, for which the TGI in the experiment with ACHN renal is 29.6 µM; in the experiment with SW-620 colon it was 32 µM; in the experiment with SNB-75 CNS it was 42.5 µM; with K-562 leukemia it was 44.4 µM; with HT29 colon, 32.1 µM; in the experiment with LOX IMVI melanoma it was 25.9 µM. Further, the TGI came to 29.7 µM in the experiment on U251 CNS, 34.5 µM in the experiment on 786-0 renal, 30.9 µM with M14 melanoma and 31.9 µM in the experiment on SK-MEL-28 melanoma.

Turning to `[Cl-].[Gd+3].[O-]/N=C(\c1ccccc1)c1ccccn1.[O-]/N=C(\c1ccccc1)c1ccccn1.[O-]/N=C(\c1ccccc1)c1ccccn1`, the GI50 with ACHN renal was 64.3 µM; in the experiment on SW-620 colon, 41.7 µM; in the experiment with SNB-75 CNS it was 17.5 µM; in the experiment with K-562 leukemia it was 65 µM; with HT29 colon it was 44.9 µM; in the experiment on LOX IMVI melanoma, 28.5 µM. In addition, the GI50 with U251 CNS is 68.9 µM; in the experiment on 786-0 renal it was 57.8 µM; with M14 melanoma, 51.4 µM; in the experiment on SK-MEL-28 melanoma, 61.6 µM. Further, the TGI with ACHN renal is above 100 µM; with SW-620 colon, above 100 µM; in the experiment on SNB-75 CNS, 71.9 µM; with K-562 leukemia, above 100 µM; in the experiment with HT29 colon, above 100 µM; in the experiment on LOX IMVI melanoma, 76.5 µM. Further, the TGI in the experiment on U251 CNS, in the experiment with 786-0 renal, in the experiment with M14 melanoma and in the experiment on SK-MEL-28 melanoma was above 100 µM each time.

For the compound `CCSc1ncc(Br)c(Sc2nc(N)nc3nc[nH]c23)n1`, the GI50 in the experiment on ACHN renal is 6.58 µM; with SW-620 colon, 17.7 µM; in the experiment on SNB-75 CNS it was 1.57 µM; with K-562 leukemia it was 3.11 µM; in the experiment on HT29 colon, 5.74 µM; in the experiment with LOX IMVI melanoma, 2.39 µM. Besides, the GI50 in the experiment on U251 CNS is 18.1 µM; in the experiment on 786-0 renal, 3.22 µM; in the experiment with M14 melanoma, 1.79 µM; with SK-MEL-28 melanoma, 46.9 µM. Moreover, the TGI in the experiment with ACHN renal was above 100 µM; in the experiment on SW-620 colon it was above 100 µM; with SNB-75 CNS, 14 µM; in the experiment on K-562 leukemia it was above 100 µM; in the experiment with HT29 colon it was 80.3 µM; with LOX IMVI melanoma it was above 100 µM. In addition, the TGI with U251 CNS was above 100 µM; in the experiment on 786-0 renal, above 100 µM; in the experiment on M14 melanoma, 8.68 µM; with SK-MEL-28 melanoma, above 100 µM.

For the compound `O=C(Oc1ccc2c(c1)CN(Cc1ccccc1)CO2)c1ccccc1`, the TGI worked out at 32.9 µM with ACHN renal; 56.4 µM in the experiment with SW-620 colon; 32.5 µM in the experiment with SNB-75 CNS; 49.6 µM with K-562 leukemia; 40.8 µM in the experiment on HT29 colon; 37.1 µM with LOX IMVI melanoma. The TGI in the experiment on U251 CNS worked out at 31.2 µM; in the experiment with 786-0 renal, 30.7 µM; with M14 melanoma, 32 µM; with SK-MEL-28 melanoma, 41.2 µM.

`Cc1ccc(C2=C(Cl)C(=O)C(c3ccc(C)cc3)=C(Cl)C2=O)cc1`: the TGI in the experiment with ACHN renal, in the experiment on SW-620 colon, in the experiment on SNB-75 CNS, in the experiment with K-562 leukemia, with HT29 colon and in the experiment on LOX IMVI melanoma was above 100 µM throughout. Besides, the TGI in the experiment with U251 CNS, with 786-0 renal, with M14 melanoma and in the experiment on SK-MEL-28 melanoma was above 100 µM each time.
